The source of these data is US10071967B2, “N-cycloalkyl-N-{[2-(1-substitutedcycloalkyl)phenyl]methylene}-(thio)carboxamide derivatives” (BAYER CROPSCIENCE AKTIENGESELLSCHAFT, priority 2013, dated 2018).

What is called logP is a log measure of how a compound divides between an organic and an aqueous phase. Read a high logP as a more lipophilic compound.

The first data set can be described thus: log P by HPLC on a reversed-phase column (C 18), EEC Directive 79/831 Annex V.A8. The data set is classed as physicochemical. The following applies: HPLC reversed-phase C 18, 40° C., 0.1% aqueous formic acid and acetonitrile, gradient 10% to 90% acetonitrile. The protocol: In table 1, the log P values were determined in accordance with EEC Directive 79/831 Annex V.A8 by HPLC (High Performance Liquid Chromatography) on a reversed-phase column (C 18), using the method described below: Temperature: 40° C.; Mobile phases: 0.1% aqueous formic acid and acetonitrile; linear gradient from 10% acetonitrile to 90% acetonitrile. Calibration was carried out using unbranched alkan-2-ones (comprising 3 to 16 carbon atoms) with known log P values (determination of the log P values by the retention times using linear interpolation between two successive alkanones). lambda-max-values were determined using UV-spectra from 200 nm to 400 nm and the peak values of the chromatographic signals.
In turn, `Cc1cc(C(=O)N(Cc2cc(Cl)c(Cl)cc2C2(C)CC2)C2CC2)c(C)o1` [Example 1.159] registered a log partition coefficient (logP) of 5.43.
Still for that read-out and setting: to `COCC1(c2ccc(C)cc2CN(C(=O)c2cn(C)nc2C(F)F)C2CC2)CC1` [Example 1.154] belongs 3.13; to `COCC1(c2ccc(C)cc2CN(C(=O)c2c(C)nn(C)c2F)C2CC2)CC1` [Example 1.156], 3.02; to `COCC1(c2ccc(C)cc2CN(C(=O)c2c(C)nn(C)c2Cl)C2CC2)CC1` [Example 1.158], 3.19.
Still for that read-out and setting: to `Cc1nn(C)c(F)c1C(=O)N(Cc1cc(Cl)c(Cl)cc1C1(C)CC1)C1CC1` [Example 1.162] belongs 4.35.
`Cc1nn(C)cc1C(=O)N(Cc1cc(Cl)c(Cl)cc1C1(C)CC1)C1CC1` [Example 1.160] came in with a logP of 3.81.

Still in this data set, the particulars now being: HPLC, reversed-phase column (C 18), 40° C.; 0.1% aqueous formic acid and acetonitrile, linear gradient 10% to 90% acetonitrile.
In turn, `COC1(c2ccccc2CN(C(=O)c2cn(C)nc2C(F)F)C2CC2)CC1` [Example 1.104] had a logP of 2.88.
In turn, `COc1cc(CN(C(=O)c2cn(C)nc2C(F)F)C2CC2)c(C2(C)CC2)cc1OC` [Example 1.020] gave a logP of 2.98.
Take `Cc1ccc(C2(C3CC3)CC2)c(CN(C(=O)c2c(C)nn(C)c2F)C2CC2)c1` [Example 1.108]: the logP amounted to 4.11.
In the case of `Cc1ccc(C2(C(C)C)CC2)c(CN(C(=O)c2nn(C)cc2C(F)F)C2CC2)c1` [Example 1.117], the logP turned out to be 4.90.
`Cn1cc(C(=O)N(Cc2ccccc2C2(C(F)(F)F)CC2)C2CC2)c(C(F)F)n1` [Example 1.145] displayed a logP of 3.41.
In the case of `CCC1(c2ccc(C)cc2CN(C(=O)c2c(OC(F)F)nn(C)c2Cl)C2CC2)CC1` [Example 1.101], the logP was 2.84.
The same measure, in the same setting: to `Cc1ccc(C2(C(C)C)CC2)c(CN(C(=O)c2cn(C)nc2C(F)F)C2CC2)c1` [Example 1.123] belongs 4.49.
The same measure, in the same setting: to `Cc1ccc(C2(C)CC2)c(CN(C(=O)c2cc(C)oc2C(F)F)C2CC2)c1` [Example 1.042] belongs 4.62; to `Cc1ccc(C2(C)CC2)c(CN(C(=O)c2oc(C)nc2C(F)F)C2CC2)c1` [Example 1.046], 4.39.
For the molecule `CCC1(c2ccccc2CN(C(=O)c2cn(C)nc2C(F)F)C2CC2)CC1` [Example 1.067], the logP came out at 3.79.
The same measure, in the same setting: to `CCCC1(c2cc(Cl)ccc2CN(C(=O)c2nn(C)nc2C(F)F)C2CC2)CC1` [Example 1.112] belongs 5.31.
On the same count and under the same terms, to `Cc1cc(C(=S)N(Cc2ccc(Cl)cc2C2(C)CC2)C2CC2)c(C)o1` [Example 1.012] belongs 5.65; to `Cn1cc(C(=O)N(Cc2c(Br)cccc2C2(C(F)F)CC2)C2CC2)c(C(F)F)n1` [Example 1.142], 3.39.
`Cn1cc(C(=O)N(Cc2cc(Br)ccc2C2(C)CC2)C2CC2)c(C(F)F)n1` [Example 1.024] showed a logP of 3.94.
The same measure, in the same setting: to `Cc1ccc(C2(C)CC2)c(CN(C(=O)c2sccc2I)C2CC2)c1` [Example 1.034] belongs 5.14; to `Cc1cc(C(=O)N(Cc2cc(Cl)ccc2C2(C(F)(F)F)CC2)C2CC2)c(C)o1` [Example 1.148], 4.82.
Still for that read-out and setting: to `Cc1c(C(=O)N(Cc2cc(Cl)ccc2C2(C)CC2)C2CC2)c(C(F)F)nn1C` [Example 1.030] belongs 4.06.
Consider `CCC1(c2ccc(Cl)cc2CN(C(=O)c2c(OC(F)F)nn(C)c2F)C2CC2)CC1` [Example 1.089], for which the logP is 4.78.
Still for that read-out and setting: to `CCCC1(c2ccc(C)cc2CN(C(=O)c2cn(C)nc2C(F)F)C2CC2)CC1` [Example 1.114] belongs 4.59; to `Cc1ccc(C2(C)CC2)c(CN(C(=O)c2cc(C3CC3)oc2C)C2CC2)c1` [Example 1.045], 5.22.
Same read-out and setting: to `C#CC1(c2ccc(C)cc2CN(C(=O)c2cn(C)nc2C(F)F)C2CC2)CC1` [Example 1.064] belongs 3.31; to `CCCC1(c2ccc(C)cc2CN(C(=S)c2cn(C)nc2C(F)F)C2CC2)CC1` [Example 1.116], 5.08; to `CCC1(c2ccc(Cl)cc2CN(C(=O)c2c(OC(F)F)nn(C)c2C(F)(F)F)C2CC2)CC1` [Example 1.091], 5.36.
For the molecule `CCC1(c2ccc(C)cc2CN(C(=O)c2c(C)nn(C)c2F)C2CC2)CC1` [Example 1.093], the logP is listed as 4.14.
On the same count and under the same terms, to `Cc1ccc(C2(C)CC2)c(CN(C(=S)c2sccc2I)C2CC2)c1` [Example 1.054] belongs 5.72.
Still for that read-out and setting: to `C=Cc1cc(C(=O)N(Cc2cc(C)ccc2C2(C)CC2)C2CC2)c(C)o1` [Example 1.049] belongs 5.00; to `Cc1ccc(C2(C(C)C)CC2)c(CN(C(=O)c2cc(C)oc2C(F)F)C2CC2)c1` [Example 1.120], 5.54; to `Cn1cc(C(=O)N(Cc2ccc(F)cc2C2(C)CC2)C2CC2)c(C(F)F)n1` [Example 1.013], 3.52.
Molecule `CCOC1(c2ccc(C)cc2CN(C(=O)c2cn(C)nc2C)C2CC2)CC1` [Example 1.129] showed a logP of 3.02.
`CCC1(c2ccc(C)cc2CN(C(=O)c2c(OC(F)F)nn(C)c2C(F)(F)F)C2CC2)CC1` [Example 1.100] came in with a logP of 5.35.
`Cn1cc(C(=O)N(Cc2cc(F)ccc2C2(C(F)(F)F)CC2)C2CC2)c(C(F)F)n1` [Example 1.150] returned a logP of 3.48.
On to `CCC1(c2ccc(C)cc2CN(C(=O)c2cc(C)oc2C(F)F)C2CC2)CC1` [Example 1.095], for which the logP is listed as 5.22.
Same read-out and setting: to `Cc1ccc(C2(C)CC2)c(CN(C(=O)c2nc(C)oc2C(F)F)C2CC2)c1` [Example 1.044] belongs 4.56; to `Cc1ccc(C2(Cl)CC2)c(CN(C(=O)c2c(C)nn(C)c2F)C2CC2)c1` [Example 1.106], 3.42.
Same read-out and setting: to `CCOC1(c2ccc(C)cc2CN(C(=O)c2c(C)nn(C)c2F)C2CC2)CC1` [Example 1.127] belongs 3.53; to `CCC1(c2cc(Cl)ccc2CN(C(=O)c2cc(C)oc2C(F)F)C2CC2)CC1` [Example 1.072], 5.28; to `Cc1ccc(C2(Cl)CC2)c(CN(C(=O)c2cn(C)nc2C(F)F)C2CC2)c1` [Example 1.105], 3.51.
Same read-out and setting: to `Cc1ccc(C2(C(C)C)CC2)c(CN(C(=O)c2cn(C)nc2C)C2CC2)c1` [Example 1.124] belongs 3.96; to `COc1ccc(CN(C(=O)c2c(C)nn(C)c2F)C2CC2)c(C2(C)CC2)c1` [Example 1.018], 3.23.
As to `C#CC1(c2ccc(C)cc2CN(C(=S)c2c(C)nn(C)c2F)C2CC2)CC1` [Example 1.066], the logP is listed as 4.54.
Still for that read-out and setting: to `Cc1ccc(C2(C)CC2)c(CN(C(=O)c2c(C)nn(C)c2F)C2CC2)c1` [Example 1.040] belongs 3.73; to `Cc1ccc(C2(C(C)C)CC2)c(CN(C(=S)c2cn(C)nc2C(F)F)C2CC2)c1` [Example 1.125], 4.98.
`Cn1cc(C(=O)N(Cc2cc(Cl)ccc2C2(C)CC2)C2CC2)c(C(F)F)n1` [Example 1.029] yielded a logP of 3.83.
`CCC1(c2ccc(C)cc2CN(C(=O)c2nn(C)nc2C(F)F)C2CC2)CC1` [Example 1.094] yielded a logP of 4.77.
Same read-out and setting: to `Cn1cc(C(=S)N(Cc2cc(Cl)ccc2C2(C(F)(F)F)CC2)C2CC2)c(C(F)F)n1` [Example 1.149] belongs 4.23.
`Cc1ccc(C2(C(F)F)CC2)c(CN(C(=O)c2cn(C)nc2C(F)F)C2CC2)c1` [Example 1.138] registered a logP of 3.29.
The same measure, in the same setting: to `Cn1cc(C(=O)N(Cc2cc(Cl)ccc2C2(C(F)(F)F)CC2)C2CC2)c(C(F)F)n1` [Example 1.147] belongs 3.78.
Take `CCC1(c2ccc(Cl)cc2CN(C(=O)c2c(OC(F)F)nn(C)c2Cl)C2CC2)CC1` [Example 1.090]: the logP is reported as 5.03.
The molecule `CCC1(c2cc(C(F)(F)F)ccc2CN(C(=O)c2cn(C)nc2C(F)F)C2CC2)CC1` [Example 1.077] gave a logP of 4.36.
Turning to `Cc1ccc(C2(C)CC2)c(CN(C(=O)c2cn(C)nc2C(F)(F)F)C2CC2)c1` [Example 1.037], the logP came to 4.16.
In turn, `Cc1ccc(C2(C)CC2)c(CN(C(=O)c2c(C)nn(C)c2Cl)C2CC2)c1` [Example 1.048] displayed a logP of 3.96.
As for `Cc1cc(C(=O)N(Cc2ccccc2C2(C(F)(F)F)CC2)C2CC2)c(C)o1` [Example 1.146], the logP is 4.31.
In turn, `Cc1cc(C(=O)N(Cc2ccc(Cl)cc2C2(C)CC2)C2CC2)c(C(F)F)o1` [Example 1.008] had a logP of 4.98.
The same measure, in the same setting: to `CCC1(c2cc(C)c(F)cc2CN(C(=O)c2c(C)nn(C)c2F)C2CC2)CC1` [Example 1.082] belongs 4.26.
`Cc1nn(C)cc1C(=O)N(Cc1cccc(F)c1C1(C)CC1)C1CC1` [Example 1.004] displayed a logP of 2.98.
On the same count and under the same terms, to `CCC1(c2ccc(C(F)(F)F)cc2CN(C(=O)c2c(C)nn(C)c2F)C2CC2)CC1` [Example 1.084] belongs 4.34.
Still for that read-out and setting: to `CCC1(c2ccc(Cl)cc2CN(C(=O)c2cc(C)oc2C)C2CC2)CC1` [Example 1.088] belongs 5.31; to `Cc1nn(C)c(F)c1C(=O)N(Cc1ccc2c(c1C1(C)CC1)OCO2)C1CC1` [Example 1.056], 3.06; to `CCC1(c2ccc(C)cc2CN(C(=O)c2cc(C)oc2C)C2CC2)CC1` [Example 1.097], 5.14.
`Cc1nn(C)c(F)c1C(=O)N(Cc1cc(Br)ccc1C1(C)CC1)C1CC1` [Example 1.027] came in with a logP of 3.99.
Same read-out and setting: to `Cc1ccc(C2(C3CC3)CC2)c(CN(C(=O)c2cc(C)oc2C)C2CC2)c1` [Example 1.109] belongs 5.05.

Staying with this data set, now noted: Table 2, compounds of formula (I); HPLC C 18, 40° C., 0.1% aqueous formic acid and acetonitrile.
The molecule `Cn1cc(C(=O)N(Cc2cccc3c2C2(CCC3)CC2)C2CC2)c(C(F)F)n1` [Ia.02] gave a logP of 3.73.
